Data: PubChem BioAssay (NCI)
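In this assay, cells in 96-well plates receive the compound at five concentrations for 48 hours. Endpoints are linearly interpolated between the surrounding concentrations. TGI: total growth inhibition.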

Legend:
Assay in all cases: DTP human tumour cell line panel, 48 h
SK-MEL-5 melanoma = system: SK-MEL-5 melanoma
A549 NSCLC = system: A549 NSCLC
SNB-75 CNS = system: SNB-75 CNS
TK-10 renal = system: TK-10 renal
SR leukemia = system: SR leukemia
PC-3 prostate = system: PC-3 prostate
HL-60(TB) leukemia = system: HL-60(TB) leukemia
RPMI-8226 leukemia = system: RPMI-8226 leukemia
OVCAR-4 ovarian = system: OVCAR-4 ovarian
U251 CNS = system: U251 CNS
OVCAR-3 ovarian = system: OVCAR-3 ovarian
OVCAR-5 ovarian = system: OVCAR-5 ovarian
UACC-257 melanoma = system: UACC-257 melanoma
K-562 leukemia = system: K-562 leukemia
SK-MEL-2 melanoma = system: SK-MEL-2 melanoma
CAKI-1 renal = system: CAKI-1 renal
MDA-MB-231 breast = system: MDA-MB-231 breast
MDA-N = system: MDA-N
RXF 393 renal = system: RXF 393 renal
SF-539 CNS = system: SF-539 CNS

Compound	TGI (SK-MEL-5 melanoma) [µM]	TGI (A549 NSCLC) [µM]	TGI (SNB-75 CNS) [µM]	TGI (TK-10 renal) [µM]	TGI (SR leukemia) [µM]	TGI (PC-3 prostate) [µM]	TGI (HL-60(TB) leukemia) [µM]	TGI (RPMI-8226 leukemia) [µM]	TGI (OVCAR-4 ovarian) [µM]	TGI (U251 CNS) [µM]	TGI (OVCAR-3 ovarian) [µM]	TGI (OVCAR-5 ovarian) [µM]	TGI (UACC-257 melanoma) [µM]	TGI (K-562 leukemia) [µM]	TGI (SK-MEL-2 melanoma) [µM]	TGI (CAKI-1 renal) [µM]	TGI (MDA-MB-231 breast) [µM]	TGI (MDA-N) [µM]	TGI (RXF 393 renal) [µM]	TGI (SF-539 CNS) [µM]
CCOC(=O)/C(=C/c1cn(C(C)=O)c2ccccc12)P(=O)(OC)OC	> 100	> 100	60.1	> 100	73.8	> 100	48.4	50.7	> 100	> 100	64.8	> 100	41.5	> 100	> 100	> 100	> 100			
Nc1c(-c2ccccc2)c2ccc([N+](=O)[O-])cc2c(=O)n1-c1cccc(C(=O)O)c1	> 100	> 100	> 100	> 100	> 100	> 100	> 100	> 100	> 100	> 100	> 100	> 100	> 100	> 100	> 100	> 100	> 100	> 100	> 100	> 100
CCN(CCCl)c1cc(CN(C)C)cc(NC(=O)c2ccc(C(=O)Nc3cccc(N(CCCl)NN)c3)cc2)c1	0.174	2.52	0.775	0.618	> 100	0.0661	13.1	31.8	0.364			0.989		0.199	0.181	0.203	0.69	0.169	0.142	0.56
